# Counter-ions that a name gives are not always drawn.
# Biological target: T1, human kallikrein 5 recombinant enzyme (KLK5) (Homo sapiens, UniProt Q9Y337)
# T1 construct: The cleaved protein was then further purified on a 1 mL Heparin HP HITRAP column; 6His (cleaved yes); FLAG (cleaved yes); made in house; host or cells: Spodoptera frugiperda Super 9 insect cells (baculovirus, BAC-TO-BAC)
# T1 sequence (Q9Y337 67-293 limits assumed): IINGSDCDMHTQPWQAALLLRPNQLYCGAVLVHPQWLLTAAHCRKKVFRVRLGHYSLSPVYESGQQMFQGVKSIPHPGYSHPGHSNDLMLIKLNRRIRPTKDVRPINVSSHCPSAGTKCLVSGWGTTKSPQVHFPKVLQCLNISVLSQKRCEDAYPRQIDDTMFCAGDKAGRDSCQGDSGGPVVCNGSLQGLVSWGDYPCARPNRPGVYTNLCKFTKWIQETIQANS
# Experiment: Kinetic FLINT KLK5 assay
# Format: biochemical
# Conditions: 7.5 nM KLK5, 9 uM (Tos-Gly-Pro-Arg)2[R110] substrate, pH 8; each compound tested more than once
# Procedure: Recombinant KLK5 protein was generated from a recombinant baculovirus using the BAC-TO-BAC system (INVITROGEN) (pFastBac_hKLK5_6His-Q-FLAG) expressed in 5 L of Spodoptera frugiperda Super 9 insect cells with a viral infection rate of 1.0. The protein was secreted into HYCLONE SFX growth media (GE HEALTHCARE) from which it was extracted on a 5 mL HISTRAP EXCEL column (GE HEALTHCARE). The column was washed with 500 mM NaCl, 20 mM Tris pH 7.4 buffer and the protein eluted using 500 mM imidazole in 250 mM NaCl, 20 mM Tris pH 7.4 buffer. The eluent was captured on a 5 mL ANTI-FLAG M2 Affinity Gel column (SIGMA). KLK5 was eluted by competing off the bound protein with 0.2 mg/mL FLAG peptide (SIGMA) in 50 mM NaCl, 20 mM Tris-HCl pH 7.4 buffer. 1 M CaCl2 was added to the pooled fractions to a final concentration 2 mM and these were treated with 0.1 U of enterokinase (NOVAGEN) per μg of target protein. The proteins were incubated at room temperature for ˜48 h. The cleaved protein was then further purified on a 1 mL Heparin HP HITRAP column (GE HEALTHCARE) in 20 mM MOPS, pH 6.8 buffer, washed with 100 mM NaCl in 20 mM MOPS, pH 6.8 buffer and eluted with 700 mM NaCl in this buffer. Fractions containing KLK5 were pooled and concentrated using an AMICON concentrator with a molecular weight cut off of 10000 Da. For cryoprotection, glycerol was added to a final concentration of 50%. All purifications were carried out using a semi-automated ÄKTA systems from GE HEALTHCARE.
# 11 point, 3-fold serial dilutions of each supporting compound were prepared in DMSO and 50 nL of these solutions were dispensed into black LV 384-well plates (GREINER BIO-ONE, Stonehouse, UK) using an ECHO 555 acoustic dispenser (LABCYTE, Sunnyvale, Calif.). This gave a final assay concentration range between 10 μM and […] in 5 μL final assay volume. 50 nL DMSO was dispensed into columns 6 and 18 for high and low controls, respectively. The assay plates were sealed and stored at 4° C. until required.
# Conditions for the assay of human kallikrein 5 recombinant enzyme (KLK5), were 100 mM sodium phosphate, pH 8, 1 mM CHAPS, 7.5 nM KLK5 enzyme (see above for preparation), 9 uM peptide substrate ((Tos-Gly-Pro-Arg)2[R110].2TFA) in a total reaction volume of 5 μL.
# Assays were performed by initially dispensing 2.5 μL of an enzyme solution (15 nM KLK5 in sodium phosphate, pH 8, 1 mM CHAPS) into all wells of the assay plate (except for column 18) then, 2.5 μL of buffer to column 18 (to generate low controls). Reactions were initiated by addition of 2.5 μL of substrate solution [18 uM (Tos-Gly-Pro-Arg)2[R110].2TFA (Cambridge Research Biochemicals) in sodium phosphate, pH 8, 1 mM CHAPS] to all wells. Plates were immediately centrifuged to reach 1000 rpm before transfer to the reader. All additions were made using a MULTIDROP COMBI dispenser (THERMO FISHER SCIENTIFIC). The assay plates were transferred to a PERKIN ELMER VIEWLUX. The plates were excited at 485 nm and the rates of Rhodamine110 fluorecent emission measured at 535 nm, following cleavage of the substrate by KLK5. Ten measurements were taken over 5 minutes with a read interval of 30 seconds.
# From the raw data, the enzyme reaction rates were calculated as relative fluorescence units (RFU). Using the 10 reads collected, per well, a straight line was fitted through data. Initial rates were calculated from the slope of the reaction progress curves. The rate data was normalised to % inhibition between high controls in column 6 (0% inhibition) and low controls in column 18 (100% inhibition). Dose response curves were fitted using the IDBS Primary module fit. The data were fitted by means of a four-parameter fit logistic:
# Where x is the inhibitor concentration, y is inhibition (%), A is the minimum response, D is the maximum response, C is the IC50 for the curve and B is the Hill slope. The −log(IC50) gives the pIC50.
row,SMILES,average pIC50
1,"Cl.N=C(N)c1ccc(C2Cc3ccccc3B(O)O2)cc1OCc1cccnc1 (centres unmarked) [Compound 8, 4-(1-hydroxy-3,4-dihydro-1H-benzo[c][1,2]oxaborinin-3-yl)-2-(pyridin-3-ylmethoxy)benzimidamide]",8.2
2,"Cl.N=C(N)c1ccc(C2Cc3cc(Cl)c(F)cc3B(O)O2)cc1OCc1cccnc1 (centres unmarked) [Compound 7, 4-(6-chloro-7-fluoro-1-hydroxy-3,4-dihydro-1H-benzo[c][1,2]oxaborinin-3-yl)-2-(pyridin-3-ylmethoxy)benzimidamide]",8.1
3,"Cl.N=C(N)c1ccc(C2Cc3ccc(C(F)(F)F)cc3B(O)O2)cc1OCc1cccnc1 (centres unmarked) [Compound 1, 4-(1-Hydroxy-7-(trifluoromethyl)-3,4-dihydro-1H-benzo[c][1,2]oxaborinin-3-yl)-2-(pyridin-3-ylmethoxy)benzimidamide hydrochloride salt]",8.5

# Same assay, conditions: 7.5 nM KLK5, 9 uM (Tos-Gly-Pro-Arg)2[R110] substrate, pH 8; each compound tested more than once; read-out: average pIC50 (converted)
row,SMILES,IC50 [nM]
1,"N=C(N)c1ccc([C@H]2Cc3ccc(C(F)(F)F)cc3B(O)O2)cc1OCc1cccnc1 [Compound 3, (R)-4-(1-hydroxy-7-(trifluoromethyl)-3,4-dihydro-1H-benzo[c][1,2]oxaborinin-3-yl)-2-(pyridin-3-ylmethoxy)benzimidamide]",39.8
2,"N=C(N)c1ccc(C2Cc3ccc(C(F)(F)F)cc3B(O)O2)cc1 (centres unmarked) [Compound 6, 4-(1-hydroxy-7-(trifluoromethyl)-3,4-dihydro-1H-benzo[c][1,2]oxaborinin-3-yl)benzimidamide]",10
3,"N=C(N)c1ccc(C2Cc3ccc(C(F)(F)F)cc3B(O)O2)cc1OCc1cccc(Cl)c1 (centres unmarked) [Compound 5, 2-((3-chlorobenzyl)oxy)-4-(1-hydroxy-7-(trifluoromethyl)-3,4-dihydro-1H-benzo[c][1,2]oxaborinin-3-yl)benzimidamide]",7.94
4,N=C(N)c1ccc([C@@H]2Cc3ccc(C(F)(F)F)cc3B(O)O2)cc1OCc1cccnc1 [Compound 4],3.98
5,"N=C(N)c1ccc([C@H]2Cc3ccc(C(F)(F)F)cc3B(O)O2)cc1OCc1cccnc1 [Compound 2, (R)-4-(1-hydroxy-7-(trifluoromethyl)-3,4-dihydro-1H-benzo[c][1,2]oxaborinin-3-yl)-2-(pyridin-3-ylmethoxy)benzimidamide hydrochloride salt]",3.98
